Data on two compounds can be found in patent US20200054589A1, “COMBINATION OF A PPAR AGONIST WITH A FXR AGONIST” (Genfit, priority 2017, published 2020).

In experiment [1] the test system is fibrosing NASH-model of rats fed a CDAA+1% cholesterol diet. Put plainly: Liver histology (picrosirius fibrosis surface, NASH lesions) in chronic CDAA+1% cholesterol model (12 weeks). The class given is in vivo, Wistar rats. The protocol: (§1) The preventive effects of Elafibranor (GFT505) alone, OCA alone and the combination of both were assessed in a fibrosing NASH-model of rats fed a CDAA+1% cholesterol diet. 150-175 g male Wistar rats were fed a control (CSAA) diet, CDAA+1% cholesterol diet, or CDAA+1% cholesterol diet supplemented with Elafibranor 1, 3 and 10 mg/kg/day, OCA 10 and 30 mg/kg/day or combined drugs (Elafibranor 1, 3 and 10 mg/kg/day combined to OCA 10 mg/kg/day) for 12 weeks.
(§2) The body weight and the food intake were monitored twice per week. On the last day of treatment, rats were sacrificed after a 6 h fasting period. The liver was rapidly excised for biochemical and histological studies.
The liver slices were first fixed for 12 hours in formalin 4% solution. Then, the liver pieces were washed 30 minutes in PBS, and dehydrated in ethanol solutions (successive baths at 70, 80, 95 and 100% ethanol). The liver pieces were incubated in three different baths of Xylene (Sigma-Aldrich cat #534056), followed by two baths in liquid paraffin (56° C.). Liver pieces were then put into racks that were gently filled with Histowax® to completely cover the tissue. The paraffin blocks containing the tissue pieces were removed from the racks and stored at room temperature. The liver blocks were cut into […] slices.
Liver sections were deparaffinized, rehydrated and incubated for 15 minutes in a solution of Fast Green FCF 0.1% (Sigma-Aldrich, cat # F7258) before rinsing in a bath of 0.5% acetic acid (Panreac, cat #131008.1611). […]
A technician blinded to the source of each liver specimen performed histological examinations. […] Briefly, steatosis, lobular inflammation and hepatocytes ballooning were scored. […]
Using Quant Center software (3D Histech, including Pattern Quant and Histo Quant modules), collagen-stained areas were quantified. […] The fibrosis area was then expressed as the percentage of the collagen surface to the whole tissue per animal.

Experiment [2] shares this test system. The experiment is described as follows: Hepatic collagen content (hydroxyproline, QuickZyme) in CDAA+1% cholesterol model. The class given is in vivo, Wistar rats. Conditions: Percentage over the untreated CDAA + 1% cholesterol rats; 12 weeks; GFT505 3 mg/kg/d, OCA 10 mg/kg/d, or GFT505 + OCA; mean ± SD. Here is the method:
as §1, §2
The hepatic collagen content was determined using the appropriate QuickZyme kit (Total collagen assay, cat # QZB-totcol2). The assay is based on the detection of hydroxyproline, which is a non-proteinogenic amino acid mainly found in the triple helix of collagen. Thus, hydroxyproline in tissue hydrolysates can be used as a direct measure of the amount of collagen present in the tissue (without discrimination between procollagen, mature collagen and collagen degradation products). Complete hydrolysis of tissue samples in 6M HCl at 95° C. is required before dosing the hydroxyproline. The assay results in the generation of a chromogen with a maximum absorbance at 570 nm. Results are expressed as mg of collagen/g of liver.

In experiment [3] the test system is genes involved in tissue remodeling and inflammation (αSMA (ACTA2), TIMP1, TGFB1, CCR5) in CDAA/chol fed rat livers. Put plainly: Hepatic gene expression analysis (quantitative PCR) in CDAA+1% cholesterol model. The class given is in vivo, Wistar rats. The note with it: liver; Percentage over the untreated CDAA + 1% cholesterol rats; 12 weeks; GFT505 3 mg/kg/d, OCA 10 mg/kg/d, or GFT505 + OCA. The protocol:
as §1, §2
Total RNA was isolated from rat livers using RNeasy Mini Kit (Qiagen) following manufacturer's instructions. Total RNA were reverse transcribed into cDNA using M-MLV RT (Moloney Murine Leukemia Virus Reverse Transcriptase) (Invitrogen cat #28025) in 1× RT buffer (Invitrogen), 0.5 mM DTT (Invitrogen), 0.18 mM dNTPs (Promega), 200 ng pdN6 (Amersham) and 30 U of RNase inhibitor (Promega).
Quantitative PCR was then carried out using the CFX96 Touch™ Real-Time PCR Detection System (Biorad). Briefly, the PCR reactions were performed in 96-WP format in 25 μl of total volume containing 1 μL of reverse transcription reaction, 0.5 μL of reverse and forward primers (10 pmol each), and 12.5 μl of 2× iQ SYBR Green Supermix (BioRad), using the following primer sequences:
Expression levels were normalized using the expression of Rplp0 gene as a reference in samples. For each gene, the standard curves were drawn by selecting the best points (at least three points) in order to have PCR reaction efficiency close to 100% and a correlation coefficient close to 1. Expression levels were determined using the standard curve equation for both the housekeeping gene and the target gene (taking into account the specific PCR efficiency of each target gene).

In experiment [4] the test system is TGFβ1-induced human primary hepatic stellate cells (hHSC), α-SMA. The experiment is described as follows: α-SMA ELISA in TGFβ1-activated hHSC (in vitro model of hepatic fibrogenesis), synergy by Excess Over Bliss. The class given is cell-based. Conditions: TGFβ1 1 ng/ml, 48 h. Here is the method: The human primary hepatic stellate cells (hHSC) (Innoprot) were cultured in STeCM medium (ScienCell cat #5301) supplemented with 2% fetal bovine serum (FBS, ScienCell cat #0010), 1% penicillin/streptomycin (ScienCell cat #0503) and stellate cell growth supplement (SteCGS; ScienCell cat #5352). Cell-culture flasks were coated with Poly-L Lysine (Sigma cat # P4707) for a better adherence.
The FXR agonist INT-767 (CAS #1000403-03-1, Cat # HY-12434, batch #19249) was obtained commercially from Haoyuan Chemexpress. For these experiments, a checkerboard matrix was generated. […]
The level of α-SMA was measured using a Sandwich ELISA. […]
The values obtained in the αSMA ELISA assays were first transformed into percentage inhibitions over TGF-β1 control. Then, using these percentage inhibitions, EOB (Excess Over Bliss) was determined to define the synergistic effects of drug combinations. Expected Bliss additivism score (E) was firstly determined by the equation: […]
For the combinations INT-767/Elafibranor, an additional total Bliss score was calculated by summation of all EOB. […]
The significance of the observed differences between INT-767/Elafibranor over the highest single agent was determined by a student's t-test. *: p<0.05; **: p<0.01; ***: p<0.001.
(In general: An ELISA detects its analyte on a solid surface through an enzyme-linked reagent.)

Regarding `CC[C@H]1[C@@H](O)[C@@H]2[C@H](CC[C@]3(C)[C@@H]([C@H](C)CCC(=O)O)CC[C@@H]23)[C@@]2(C)CC[C@@H](O)C[C@@H]12` [OCA, 6α-ethyl chenodeoxycholic acid], the “effects on ballooning and lobular inflammation, in words” value in experiment [1] (CDAA/chol diet-induced NASH model) was “rather modest”. The “effect on fibrosis development, in words (FIGS. 1-2)” value in experiment [1] (CDAA/chol fed rats, 12 weeks, fibrosis surface and hepatic collagen) was “does not attenuate fibrosis in a significant manner”. Besides, in experiment [1] (Percentage over the untreated CDAA + 1% cholesterol rats, 12 weeks in diet, GFT505 3 mg/kg/d, OCA 10 mg/kg/d, or GFT505 + OCA, mean ± SD), the Fibrosis surface was 74% ± 45%. In addition, in experiment [2], the Hepatic collagen content is listed as 67% ± 23%. In experiment [3], the “CCR5 mRNA level (marker of inflammation)” value was 81% ± 28%, the “TGFβ1 mRNA level” value is 110% ± 23%, the “TIMP1 mRNA level” value is 110% ± 43% and the “α-SMA mRNA level” value is given as 109% ± 68%.

`CC[C@H]1[C@@H](O)[C@@H]2[C@H](CC[C@]3(C)[C@@H]([C@H](C)CCOS(=O)(=O)[O-])CC[C@@H]23)[C@@]2(C)CC[C@@H](O)C[C@@H]12.[Na+]` [INT-767]: the “antifibrotic activity (α-SMA inhibition), in words” value in experiment [4] (1.9 μM of INT-767 alone) is “does not show any antifibrotic activity”. The inhibition (as a rule, how much of the control response was suppressed) at 30 µM in experiment [4] (Homo sapiens, highest dose of INT-767 tested, 30 μM, read-out: α-SMA production inhibition over TGFβ1 control) was found to be 13%.
